In brackets after ≈: the same amount, converted by molar mass. Several values for one entry are separate records, joined by “and”; a condition that tells them apart may be missing. Identical values can stand only once.
Experiments:
S. pneumoniae = assay: In vitro multistep selection for besifloxacin-resistant mutants; type: cell-based; conditions: for MIC: Streptococcus pneumoniae
Method: (§1) Furthermore, an experiment was conducted to assess the mechanism of action of besifloxacin in S. pneumoniae, S. aureus, and E. coli via step selections for isolates with decreased susceptibility to besifloxacin, as well as by testing for altered susceptibilities of ciprofloxacin-resistant variants of all three species containing genetically defined mutations in the quinolone resistance determining regions (QRDRs) of structural genes encoding DNA gyrase and topoisomerase IV (Table 2).
(§2) Besifloxacin is a potent antibacterial agent by virtue of its efficient biochemical inhibition of type II bacterial topoisomerases at low micromolar levels. Besifloxacin was associated with a low mutant prevention concentration (MPC), especially in the two Gram-positive pathogens, S. aureus and S. pneumoniae, in which the MPCs were only four times higher than the MICs for those organisms. Correspondingly, very few drug-resistant mutants were obtained in in vitro experiments for those two species (<1 mutant per 10^10 cells).
(§3) As a consequence, strains with high-level resistance would only emerge if both targets were mutated simultaneously, an event that is not very likely in strains that lack predisposing mutations. A dual-targeting mechanism of action for besifloxacin is supported by the following experimental evidence: • In S. aureus and S. pneumoniae, single (1st step) mutants were extremely rare (<1/10^10 cells) and only few or no double (2nd step) mutants were obtained (Table 3). • Single mutations in the gyrA or in the parC gene were obtained in S. aureus as well as in S. pneumoniae. […] By comparison, all single mutations in quinolone-resistant strains of E. coli were mapped to either the gyrA or the gyrB gene consistent with the general finding that quinolones primarily target the DNA gyrase in Gram-negative bacteria. • Biochemical experiments with the purified DNA gyrase and topoisomerase IV enzymes from S. pneumoniae and E. coli were performed.

S. aureus = assay: as above; type: cell-based; conditions: for MIC: Staphylococcus aureus
Method: as §1, §2, §3

E. coli = assay: as above; type: cell-based; conditions: for MIC: Escherichia coli
Method: as §1, §2, §3

E. coli topoisomerase IV = E. coli topoisomerase IV (Escherichia coli, UniProt P0AFI2+P20083); assay: Catalytic inhibition of purified topoisomerase IV; type: biochemical; conditions: IC50 Topo IV, E. coli enzymes
E. coli DNA gyrase = E. coli DNA gyrase (Escherichia coli, UniProt P0AES4+P0AES6); assay: Catalytic inhibition of purified DNA gyrase; type: biochemical
bacterial conjunctivitis = assay: Study 433: besifloxacin ophthalmic suspension vs vehicle, TID 5 days; type: in vivo, human; conditions: N = 199; for Clinical Resolution (2 indices), No / Clinical Resolution (2 indices), Yes: mITT culture confirmed as randomized; for Microbial Eradication, No / Microbial Eradication, Yes: missing or discontinued imputed as no
[1] = Systemic exposure after topical ocular administration to humans; conditions: human, in vivo, topical or ocular; following topical administration to humans
Description: Topical ophthalmic use of besifloxacin is not expected to elicit any systemic effects.

[2] = 2nd step, NMO = No mutants obtained
[3] = Visit 2 (Day 5 ± 1), primary endpoint

Sequence of E. coli DNA gyrase (P0AES4 whole entry, one chain of several): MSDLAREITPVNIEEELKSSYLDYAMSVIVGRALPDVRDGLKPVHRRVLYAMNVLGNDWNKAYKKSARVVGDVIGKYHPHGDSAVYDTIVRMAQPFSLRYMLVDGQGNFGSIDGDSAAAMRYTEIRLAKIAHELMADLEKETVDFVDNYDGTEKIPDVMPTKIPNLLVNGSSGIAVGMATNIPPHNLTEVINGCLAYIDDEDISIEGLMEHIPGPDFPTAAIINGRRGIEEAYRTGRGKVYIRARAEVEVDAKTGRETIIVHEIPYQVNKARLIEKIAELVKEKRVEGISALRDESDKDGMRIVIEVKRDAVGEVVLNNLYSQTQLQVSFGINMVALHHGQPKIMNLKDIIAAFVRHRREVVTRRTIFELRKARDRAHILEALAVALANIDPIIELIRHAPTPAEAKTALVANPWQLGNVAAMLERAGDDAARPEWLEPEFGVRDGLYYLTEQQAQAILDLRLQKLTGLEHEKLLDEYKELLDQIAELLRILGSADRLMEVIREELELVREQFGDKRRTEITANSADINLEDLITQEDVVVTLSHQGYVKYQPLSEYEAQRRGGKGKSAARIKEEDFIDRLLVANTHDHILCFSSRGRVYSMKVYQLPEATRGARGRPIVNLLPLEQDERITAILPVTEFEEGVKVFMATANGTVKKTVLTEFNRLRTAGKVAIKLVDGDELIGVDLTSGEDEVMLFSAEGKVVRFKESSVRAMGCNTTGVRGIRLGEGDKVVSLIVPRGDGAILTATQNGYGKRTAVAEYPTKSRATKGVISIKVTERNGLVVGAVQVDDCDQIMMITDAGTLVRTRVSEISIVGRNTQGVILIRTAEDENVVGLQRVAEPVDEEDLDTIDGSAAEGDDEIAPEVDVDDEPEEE
Sequence of E. coli topoisomerase IV (P0AFI2 whole entry): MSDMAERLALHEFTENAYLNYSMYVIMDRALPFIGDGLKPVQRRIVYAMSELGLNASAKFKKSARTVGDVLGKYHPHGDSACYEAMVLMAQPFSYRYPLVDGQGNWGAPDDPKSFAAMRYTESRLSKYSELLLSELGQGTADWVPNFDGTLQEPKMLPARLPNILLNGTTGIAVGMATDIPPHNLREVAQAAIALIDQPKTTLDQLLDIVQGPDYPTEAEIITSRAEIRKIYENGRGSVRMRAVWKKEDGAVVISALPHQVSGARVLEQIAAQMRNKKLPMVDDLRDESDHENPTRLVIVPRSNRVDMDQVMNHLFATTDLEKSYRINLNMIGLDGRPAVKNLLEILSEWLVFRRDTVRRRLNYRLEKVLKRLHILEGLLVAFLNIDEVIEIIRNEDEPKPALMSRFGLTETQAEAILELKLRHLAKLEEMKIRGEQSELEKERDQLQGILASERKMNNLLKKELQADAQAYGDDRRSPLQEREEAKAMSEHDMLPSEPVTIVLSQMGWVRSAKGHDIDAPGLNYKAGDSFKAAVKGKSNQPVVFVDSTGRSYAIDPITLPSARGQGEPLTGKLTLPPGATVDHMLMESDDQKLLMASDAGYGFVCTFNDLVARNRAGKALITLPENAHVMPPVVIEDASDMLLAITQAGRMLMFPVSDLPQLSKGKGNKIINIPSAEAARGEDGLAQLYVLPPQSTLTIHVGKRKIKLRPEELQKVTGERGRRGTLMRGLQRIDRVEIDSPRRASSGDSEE
Sequence of E. coli topoisomerase IV (P20083 whole entry): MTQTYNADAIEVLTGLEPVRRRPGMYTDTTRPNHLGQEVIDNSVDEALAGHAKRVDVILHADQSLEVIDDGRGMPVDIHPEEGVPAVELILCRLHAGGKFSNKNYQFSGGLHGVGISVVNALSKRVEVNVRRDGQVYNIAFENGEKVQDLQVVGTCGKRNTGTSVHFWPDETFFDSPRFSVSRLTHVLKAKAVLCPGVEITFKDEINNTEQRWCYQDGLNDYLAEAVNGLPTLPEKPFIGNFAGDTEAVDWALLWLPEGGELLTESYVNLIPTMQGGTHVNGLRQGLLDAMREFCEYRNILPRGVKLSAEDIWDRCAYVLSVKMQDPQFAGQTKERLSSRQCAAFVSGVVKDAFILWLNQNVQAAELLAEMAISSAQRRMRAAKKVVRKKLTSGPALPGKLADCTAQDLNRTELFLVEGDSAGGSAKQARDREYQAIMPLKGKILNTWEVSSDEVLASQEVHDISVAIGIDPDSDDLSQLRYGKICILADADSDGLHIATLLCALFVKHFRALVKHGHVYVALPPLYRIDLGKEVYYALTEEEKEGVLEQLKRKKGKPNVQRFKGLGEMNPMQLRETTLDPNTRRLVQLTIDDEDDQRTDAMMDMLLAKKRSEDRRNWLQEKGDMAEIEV

N[C@@H]1CCCCN(c2c(F)cc3c(=O)c(C(=O)O)cn(C4CC4)c3c2Cl)C1 [Besifloxacin, (R)-(+)-(3-amino-2,3,4,5,6,7-hexahydro-1H-azepin-1-yl)-8-chloro-1-cyclopropyl-6-fluoro-1,4,-dihydro-4-oxo-3-quinolinecarboxylic acid]
MPC (Mutant prevention concentration) (S. pneumoniae; 1st step): 0.5 µg/mL | MSW (Mutant Selection Window) (S. pneumoniae; 1st step): 0.12 to 0.25 µg/mL | Mutation rate at 4 × MIC (S. pneumoniae; 1st step): <7 × 10^−10 | MPC (Mutant prevention concentration) (S. pneumoniae; 2nd step): 2 to 4 µg/mL | MSW (Mutant Selection Window) (S. pneumoniae; 2nd step): 0.5 to 2 µg/mL | Mutation rate at 4 × MIC (S. pneumoniae; 2nd step): 2.4 × 10^−8 | MIC (S. pneumoniae; 1st step): 0.12 µg/mL (≈ 0.305 µM) | MIC (S. pneumoniae; 2nd step): 0.5 µg/mL (≈ 1.27 µM) | frequency of drug-resistant (single, 1st step) mutants (S. pneumoniae; in vitro): < 1 per 10^10 cells | MPC (Mutant prevention concentration) (S. aureus; 1st step): 0.12 µg/mL | MSW (Mutant Selection Window) (S. aureus; 1st step): 0.03 to 0.06 µg/mL | Mutation rate at 4 × MIC (S. aureus; 1st step): 3.3 × 10^−10 | MPC (Mutant prevention concentration) (S. aureus; 2nd step): 0.25 µg/mL | MSW (Mutant Selection Window) (S. aureus; [2]): NMO | Mutation rate at 4 × MIC (S. aureus; [2]): NMO | MIC (S. aureus; 1st step): 0.03 µg/mL (≈ 0.0762 µM) | MIC (S. aureus; 2nd step): 0.25 µg/mL (≈ 0.635 µM) | frequency of drug-resistant (single, 1st step) mutants (S. aureus; in vitro): < 1 per 10^10 cells | MPC (Mutant prevention concentration) (E. coli; 1st step): 4 µg/mL | MSW (Mutant Selection Window) (E. coli; 1st step): 0.12 to 2 µg/mL | Mutation rate at 4 × MIC (E. coli; 1st step): 3.8 × 10^−8 | MPC (Mutant prevention concentration) (E. coli; 2nd step): 16 µg/mL | MSW (Mutant Selection Window) (E. coli; 2nd step): 2 to 8 µg/mL | Mutation rate at 4 × MIC (E. coli; 2nd step): 6 × 10^−9 | MIC (E. coli; 1st step): 0.12 µg/mL (≈ 0.305 µM) | MIC (E. coli; 2nd step): 2 µg/mL (≈ 5.08 µM) | IC50 (E. coli topoisomerase IV): 23 µM and 25.4 µM | IC50 (E. coli DNA gyrase; E. coli enzymes): 2.3 µM and 2.54 µM | inhibitory concentration for gyrase lower than for topoisomerase IV (E. coli DNA gyrase; E. coli enzymes): 10 fold | catalytic inhibition and cleavable complex stimulation relative to comparators (E. coli DNA gyrase; purified E. coli DNA gyrase and topoisomerase IV): equivalent to that of the ciprofloxacin and moxifloxacin comparators | Clinical Resolution (2 indices), No (bacterial conjunctivitis; Visit 2 (Day 5 ± 1)): 109 (54.8) n (%) | Microbial Eradication, No (bacterial conjunctivitis; Visit 2 (Day 5 ± 1)): 17 (8.5) n (%) | Clinical Resolution (2 indices), Yes (bacterial conjunctivitis; [3]): 90 (45.2) n (%) | Microbial Eradication, Yes (bacterial conjunctivitis; [3]): 182 (91.5) n (%) | Clinical Resolution (2 indices), No (bacterial conjunctivitis; Visit 3 (Day 8 or 9)): 31 (15.6) n (%) | Clinical Resolution (2 indices), Yes (bacterial conjunctivitis; Visit 3 (Day 8 or 9)): 168 (84.4) n (%) | Microbial Eradication, No (bacterial conjunctivitis; Visit 3 (Day 8 or 9)): 23 (11.6) n (%) | Microbial Eradication, Yes (bacterial conjunctivitis; Visit 3 (Day 8 or 9)): 176 (88.4) n (%) | Cmax [1]: ~0.4 ng/mL
